Legend:
Assay in all cases: tryptophan fluorescence quenching titration at […] °C
Format in all cases: binding
RNase A = target: T1, RNase A (Bos taurus, UniProt P61823)
T1 sequence (P61823 27-150): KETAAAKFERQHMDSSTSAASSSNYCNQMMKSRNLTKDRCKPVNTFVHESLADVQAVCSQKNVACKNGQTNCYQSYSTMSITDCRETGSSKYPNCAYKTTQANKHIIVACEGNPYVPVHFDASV

Taq polymerase = Taq polymerase (Thermus aquaticus, UniProt P19821)
DNase I = DNase I (Bos taurus, UniProt P00639)
DNase I, sequence (P00639 23-282): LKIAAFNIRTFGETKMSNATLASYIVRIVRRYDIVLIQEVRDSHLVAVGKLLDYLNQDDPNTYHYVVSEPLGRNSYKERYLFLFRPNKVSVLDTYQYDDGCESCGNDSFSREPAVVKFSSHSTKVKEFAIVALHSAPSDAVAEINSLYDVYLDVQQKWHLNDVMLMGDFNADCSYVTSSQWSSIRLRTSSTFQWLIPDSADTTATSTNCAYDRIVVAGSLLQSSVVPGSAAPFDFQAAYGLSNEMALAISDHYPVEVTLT

Taq polymerase, sequence (P19821 whole entry): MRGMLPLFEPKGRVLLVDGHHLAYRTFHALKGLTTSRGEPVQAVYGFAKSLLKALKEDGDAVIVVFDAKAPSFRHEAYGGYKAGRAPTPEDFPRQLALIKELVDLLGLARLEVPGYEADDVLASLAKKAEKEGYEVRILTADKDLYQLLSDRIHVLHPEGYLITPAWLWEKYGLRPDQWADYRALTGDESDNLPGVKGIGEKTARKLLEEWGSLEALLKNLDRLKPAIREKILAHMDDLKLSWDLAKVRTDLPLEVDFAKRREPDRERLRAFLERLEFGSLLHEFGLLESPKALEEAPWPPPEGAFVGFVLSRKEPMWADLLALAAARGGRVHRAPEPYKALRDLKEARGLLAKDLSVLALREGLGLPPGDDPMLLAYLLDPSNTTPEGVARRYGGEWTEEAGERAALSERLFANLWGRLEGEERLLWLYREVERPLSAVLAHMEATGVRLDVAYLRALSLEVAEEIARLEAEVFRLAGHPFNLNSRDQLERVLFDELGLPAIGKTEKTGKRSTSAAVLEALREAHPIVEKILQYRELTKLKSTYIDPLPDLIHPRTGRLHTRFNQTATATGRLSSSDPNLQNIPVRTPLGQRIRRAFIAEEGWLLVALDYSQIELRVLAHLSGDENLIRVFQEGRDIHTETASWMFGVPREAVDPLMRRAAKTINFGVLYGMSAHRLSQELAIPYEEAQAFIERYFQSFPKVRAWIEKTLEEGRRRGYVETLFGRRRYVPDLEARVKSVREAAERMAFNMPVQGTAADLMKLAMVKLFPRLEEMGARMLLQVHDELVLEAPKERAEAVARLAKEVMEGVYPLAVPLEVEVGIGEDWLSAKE

O=C(O)C1=CC(=C(c2ccc(O)c(C(=O)O)c2)c2ccc(O)c(C(=O)O)c2)C=CC1=O [ATA, aurintricarboxylic acid]
Kd (RNase A): 2.33 µM
Kd (Taq polymerase): 82 µM
Kd (DNase I): 9.02 µM

Reference: paper PMC7108291 (Spectrochimica Acta. Part A, Molecular and Biomolecular …, 2009)
